This note sets out measurements from article PMC9572942, “The Discovery of Small Allosteric and Active Site Inhibitors of the SARS-CoV-2 Main Protease via Structure-Based Virtual Screening and Biological Evaluation” (Molecules, 2022).

Molecules are shown by their SMILES.

Test [1] concerns the target T1, SARS-CoV-2 M^pro enzyme (Severe acute respiratory syndrome coronavirus 2, UniProt P0DTD1). Nature of the test: FRET-based enzyme assay and IC50 determination. The test is classed as biochemical. As to conditions: 4.6 μM enzyme, HEPES pH 6.5.
Test [2] addresses T1, SARS-CoV-2 M^pro enzyme. Nature of the test: Inhibition kinetic study (Lineweaver–Burk, FRET assay). As to conditions: from slope of Lineweaver–Burk curves vs. inhibitor concentration. The test is classed as biochemical.

For the compound `O=C(CSc1cnc2ccccc2n1)NC1CCCC1` [CB03], the IC50 in test [1] worked out at 301 ± 10 µM. Further, the Ki in test [2] came to 256 µM.

In general, IC50 refers to the concentration that gives 50% inhibition. One may read the Ki as a measure of affinity in units of concentration, obtained from inhibition or displacement.
